From patent publication US20230123334A1, “AMINO LIPID COMPOUND, PREPARATION METHOD THEREFOR, AND APPLICATION THEREOF” (SHENZHEN SHENXIN BIOTECHNOLOGY CO., LTD., priority 2020, published 2023)

Tested on: HEK293 cells
Assay: Preliminary screening as DNA vectors, GFP transfection of HEK293 cells
Type: cell-based
Details: amino lipid/DOPE liposome with 75 ng plasmid DNA (psin-EGFP-IRES-Puro); number of GFP-expressing cells divided by total nuclei (Hoechst)
How it was run: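 Lipid + DOPE liposomes (NaOAc, pH 5.6) complexed w/ 75 ng psin-EGFP-IRES-Puro, 30 min RT; added to 3-5×10^4 HEK293/well, 37° C. Hoechst 0.2 μg/mL at 20-24 h, imaged after further 20-24 h. Efficiency = GFP+ cells / total nuclei.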

In order of rising “Absolute DNA transfection efficiency in HEK293 cells” value:
1. CCCCCCCCCCCCCCCNc1nc(NCCN2CCOCC2)nc(SCCCCCCCCCCCCCCC)n1 [S15N15 D2]  0.0%
2. CCCCCCCCCCCCCCCNc1nc(NCCCN(C)C)nc(SCCCCCCCCCCCCCCC)n1 [S15N15 D6]  0.0%
3. CCCCCCCCCCCCCCCCNc1nc(NCCN2CCOCC2)nc(SCCCCCCCCCCCCCCC)n1 [S15N16 D2]  0.0%
4. CCCCCCCCCCCCCCCCNc1nc(NCCCN(C)C)nc(SCCCCCCCCCCCCCCC)n1 [S15N16 D6]  0.0%
5. CCCCCCCCCCCCCCCCNc1nc(NCCCN2CCOCC2)nc(SCCCCCCCCCCCCCCC)n1 [S15N16 D8]  0.0%
6. CCCCCCCCCCCCCCCCCCNc1nc(NCCN2CCOCC2)nc(SCCCCCCCCCCCCCCC)n1 [S15N18 D2]  0.0%
7. CCCCCCCCCCCCCCCSc1nc(NCCN(C)C)nc(N(CCCCCCCCCCCC)CCCCCCCCCCCC)n1 [S15^2N12 D1]  0.0%
8. CCCCCCCCCCCCCCCSc1nc(NCCN2CCOCC2)nc(N(CCCCCCCCCCCC)CCCCCCCCCCCC)n1 [S15^2N12 D2]  0.0%
9. CCCCCCCCCCCCCCCSc1nc(NCCN2CCCCC2)nc(N(CCCCCCCCCCCC)CCCCCCCCCCCC)n1 [S15^2N12 D4]  0.0%
10. CCCCCCCCCCCCCCCSc1nc(NCCCN(C)C)nc(N(CCCCCCCCCCCC)CCCCCCCCCCCC)n1 [S15^2N12 D6]  0.0%
11. CCCCCCCCCCCCCCCSc1nc(NCCCN2CCOCC2)nc(N(CCCCCCCCCCCC)CCCCCCCCCCCC)n1 [S15^2N12 D8]  0.0%
12. CCCCCCCCCCCCCCCNc1nc(NCCCN2CCOCC2)nc(SCCCCCCCCCCCCCCC)n1 [S15N15 D8]  0.1%
13. CCCCCCCCCCCCCCCSc1nc(NCCN2CCCC2)nc(N(CCCCCCCCCCCC)CCCCCCCCCCCC)n1 [S15^2N12 D3]  0.1%
14. CCCCCCCCCCCCCCCCNc1nc(NCCN2CCN(C)CC2)nc(SCCCCCCCCCCCCCCC)n1 [S15N16 D5]  0.2%
15. CCCCCCCCCCCCCCCCNc1nc(NCCCN2CCN(C)CC2)nc(SCCCCCCCCCCCCCCC)n1 [S15N16 D9]  0.2%
16. CCCCCCCCCCCCCCCSc1nc(NCCN(CC)CC)nc(N(CCCCCCCCCCCC)CCCCCCCCCCCC)n1 [S15^2N12 D7]  0.2%
17. CCCCCCCCCCCCCCCNc1nc(NCC2CCN(C)CC2)nc(SCCCCCCCCCCCCCCC)n1 [S15N15 D10]  0.3%
18. CCCCCCCCCCCCCCCCNc1nc(NCC2CCN(C)CC2)nc(SCCCCCCCCCCCCCCC)n1 [S15N16 D10]  0.3%
19. CCCCCCCCCCCCCCCCCCNc1nc(NCCN2CCN(C)CC2)nc(SCCCCCCCCCCCCCCC)n1 [S15N18 D5]  0.3%
20. CCCCCCCCCCCCCCCCCCNc1nc(NCCCN(C)C)nc(SCCCCCCCCCCCCCCC)n1 [S15N18 D6]  0.3%
21. CCCCCCCCCCCCCCCCCCNc1nc(NCCCN2CCOCC2)nc(SCCCCCCCCCCCCCCC)n1 [S15N18 D8]  0.3%
22. CCCCCCCCCCCCCCCNc1nc(NCCN2CCN(C)CC2)nc(SCCCCCCCCCCCCCCC)n1 [S15N15 D5]  0.4%
23. CCCCCCCCCCCCCCCNc1nc(NCCN(CC)CC)nc(SCCCCCCCCCCCCCCC)n1 [S15N15 D7]  0.4%
24. CCCCCCCCCCCCCCCCNc1nc(NCCN2CCCCC2)nc(SCCCCCCCCCCCCCCC)n1 [S15N16 D4]  0.4%
25. CCCCCCCCCCCCCCCCNc1nc(NCCN(CC)CC)nc(SCCCCCCCCCCCCCCC)n1 [S15N16 D7]  0.4%
26. CCCCCCCCCCCCCCCCCCNc1nc(NCCN2CCCCC2)nc(SCCCCCCCCCCCCCCC)n1 [S15N18 D4]  0.4%
27. CCCCCCCCCCCCCCCCCCNc1nc(NCCCN2CCN(C)CC2)nc(SCCCCCCCCCCCCCCC)n1 [S15N18 D9]  0.4%
28. CCCCCCCCCCCCCCCNc1nc(NCCN2CCCCC2)nc(SCCCCCCCCCCCCCCC)n1 [S15N15 D4]  0.5%
29. CCCCCCCCCCCCCCCNc1nc(NCCCN2CCN(C)CC2)nc(SCCCCCCCCCCCCCCC)n1 [S15N15 D9]  0.5%
30. CCCCCCCCCCCCCCCNc1nc(NCCN(C)C)nc(SCCCCCCCCCCCCCCC)n1 [S15N15 D1]  0.6%
31. CCCCCCCCCCCCCCCCNc1nc(NCCN2CCCC2)nc(SCCCCCCCCCCCCCCC)n1 [S15N16 D3]  0.6%
32. CCCCCCCCCCCCCCCCCCNc1nc(NCCN(C)C)nc(SCCCCCCCCCCCCCCC)n1 [S15N18 D1]  0.6%
33. CCCCCCCCCCCCCCCCCCNc1nc(NCCN2CCCC2)nc(SCCCCCCCCCCCCCCC)n1 [S15N18 D3]  0.7%
34. CCCCCCCCCCCCCCCSc1nc(NCCN2CCN(C)CC2)nc(N(CCCCCCCCCCCC)CCCCCCCCCCCC)n1 [S15^2N12 D5]  0.7%
35. CCCCCCCCCCCCCCCNc1nc(NCCN2CCCC2)nc(SCCCCCCCCCCCCCCC)n1 [S15N15 D3]  0.8%
36. CCCCCCCCCCCCCCCCCCNc1nc(NCCN(CC)CC)nc(SCCCCCCCCCCCCCCC)n1 [S15N18 D7]  0.9%
37. CCCCCCCCCCCCCCCSc1nc(NCCCN2CCN(C)CC2)nc(N(CCCCCCCCCCCC)CCCCCCCCCCCC)n1 [S15^2N12 D9]  0.9%
38. CCCCCCCCCCCCCCCSc1nc(NCC2CCN(C)CC2)nc(N(CCCCCCCCCCCC)CCCCCCCCCCCC)n1 [S15^2N12 D10]  1.0%
39. CCCCCCCCCCCCCCCCCCNc1nc(NCC2CCN(C)CC2)nc(SCCCCCCCCCCCCCCC)n1 [S15N18 D10]  1.2%
40. CCCCCCCCCCCCCCCCNc1nc(NCCN(C)C)nc(SCCCCCCCCCCCCCCC)n1 [S15N16 D1]  1.3%
41. CCCCCCCCCCCCCCCCSc1nc(NCCCCCC)nc(NCCN2CCCCC2)n1 [S16N6 D4]  6.0%
42. CCCCCCCCCCCCCCCCSc1nc(NCCCCCC)nc(NCCN(C)C)n1 [S16N6 D1]  8.0%
43. CCCCCCCCCCCCCCCCSc1nc(NCCCCCC)nc(NCCN2CCOCC2)n1 [S16N6 D2]  16.5%
44. CCCCCCCCCCCCCCCCSc1nc(NCCCCCC)nc(NCCN2CCCC2)n1 [S16N6 D3]  35.3%
